From ChEMBL document CHEMBL2311509, “Synthesis and antiproliferative evaluation of 3-phenylquinolinylchalcone derivatives against non-small cell lung cancers and breast cancers” (Eur J Med Chem, 2013)
Calls of active or inactive are those of the source. The calls are words filed in the database; no cut-off is given here.

Tests used:
A549 = assay: Antiproliferative activity against human A549 cells after 72 hrs by XTT assay; type: functional, cell-based; details: A549, 72 h
[1] = Antiproliferative activity against human H184B5F5/M10 cells after 72 hrs by XTT assay; type: functional, cell-based; details: H184B5F5/M10, 72 h
MDA-MB-231 [2] = assay: Antiproliferative activity against human MDA-MB-231 cells after 72 hrs by XTT assay; type: functional, cell-based; details: MDA-MB-231, 72 h
[3] = Antiproliferative activity against human H460 cells after 72 hrs by XTT assay; type: functional, cell-based; details: NCI-H460, 72 h
[4] = Antiproliferative activity against human H1299 cells after 72 hrs by XTT assay; type: functional, cell-based; details: NCI-H1299, 72 h
SK-BR-3 = assay: Antiproliferative activity against human SKBR3 cells after 72 hrs by XTT assay; type: functional, cell-based; details: SK-BR-3, 72 h
MCF7 = assay: Antiproliferative activity against human MCF7 cells after 72 hrs by XTT assay; type: functional, cell-based; details: MCF7, 72 h
H184B5F5/M10 = assay: Antiproliferative activity against human H184B5F5/M10 cells at 0.1 to 5 uM after 12 to 48 hrs by XTT assay; type: functional, cell-based
MDA-MB-231 [5] = assay: Induction of cell cycle arrest in human MDA-MB-231 cells assessed as accumulation at subG1 phase at 0.1 uM after 24 hrs by flow cytometry (reference value: 3.3 +/- 1.5%); type: functional
MDA-MB-231 [6] = assay: Antiproliferative activity against human MDA-MB-231 cells after 48 hrs by XTT assay; type: functional, cell-based
MDA-MB-231 [7] = assay: Induction of cell cycle arrest in human MDA-MB-231 cells assessed as accumulation at subG1 phase at 0.5 uM after 24 hrs by flow cytometry (reference value: 3.3 +/- 1.5%); type: functional
MDA-MB-231 [8] = assay: Induction of cell cycle arrest in human MDA-MB-231 cells assessed as accumulation at S phase at 0.1 uM after 24 hrs by flow cytometry (reference value: 12.4 +/- 2.1%); type: functional
MDA-MB-231 [9] = assay: Induction of cell cycle arrest in human MDA-MB-231 cells assessed as accumulation at subG1 phase at 1 uM after 24 hrs by flow cytometry (reference value: 3.3 +/- 1.5%); type: functional
MDA-MB-231 [10] = assay: Induction of apoptosis in human MDA-MB-231 cells assessed as caspase 3 activation at 0.1 to 1 uM after 24 hrs by immunoblot method; type: functional, cell-based
MDA-MB-231 [11] = assay: Induction of cell cycle arrest in human MDA-MB-231 cells assessed as accumulation at G1 phase at 0.1 uM after 24 hrs by flow cytometry (reference value: 63.1 +/- 2.7%); type: functional
MDA-MB-231 [12] = assay: Induction of cell cycle arrest in human MDA-MB-231 cells assessed as accumulation at G2/M phase at 0.1 uM after 24 hrs by flow cytometry (reference value: 22.1 +/- 3.1%); type: functional
MDA-MB-231 [13] = assay: Induction of cell cycle arrest in human MDA-MB-231 cells assessed as accumulation at G2/M phase at 1 uM after 24 hrs by flow cytometry (reference value: 22.1 +/- 3.1%); type: functional
MDA-MB-231 [14] = assay: Induction of apoptosis in human MDA-MB-231 cells assessed as PARP cleavage at 0.1 to 1 uM after 24 hrs by immunoblot method; type: functional, cell-based
MDA-MB-231 [15] = assay: Induction of cell cycle arrest in human MDA-MB-231 cells assessed as accumulation at S phase at 1 uM after 24 hrs by flow cytometry (reference value: 12.4 +/- 2.1%); type: functional
MDA-MB-231 [16] = assay: Induction of cell cycle arrest in human MDA-MB-231 cells assessed as accumulation at G1 phase at 0.5 uM after 24 hrs by flow cytometry (reference value: 63.1 +/- 2.7%); type: functional
MDA-MB-231 [17] = assay: Induction of cell cycle arrest in human MDA-MB-231 cells assessed as accumulation at G2/M phase at 0.5 uM after 24 hrs by flow cytometry (reference value: 22.1 +/- 3.1%); type: functional
MDA-MB-231 [18] = assay: Induction of cell cycle arrest in human MDA-MB-231 cells assessed as accumulation at G1 phase at 1 uM after 24 hrs by flow cytometry (reference value: 63.1 +/- 2.7%); type: functional
MDA-MB-231 [19] = assay: Induction of cell cycle arrest in human MDA-MB-231 cells assessed as accumulation at S phase at 0.5 uM after 24 hrs by flow cytometry (reference value: 12.4 +/- 2.1%); type: functional
MDA-MB-231 [20] = assay: Induction of morphological changes in human MDA-MB-231 cells at 0.5 uM after 24 hrs by light microscopy; type: functional, cell-based
MDA-MB-231 [21] = assay: Antiproliferative activity against human MDA-MB-231 cells at 0.1 to 5 uM by XTT assay; type: functional, cell-based; details: TDE = time-dependent effect
[22] = Growth inhibition of human H1299 cells; type: functional; details: NCI-H1299
[23] = Growth inhibition of human Hep3B cells; type: functional, Hep 3B2
MDA-MB-231 [24] = assay: Growth inhibition of human MDA-MB-231 cells; type: functional

Row | Compound | IC50 (A549) | IC50 [1] | IC50 (MDA-MB-231 [2]) | IC50 [3] | IC50 [4] | IC50 (SK-BR-3) | IC50 (MCF7) | other results
1 | COc1ccc(-c2cc3ccccc3nc2/C=C/C(=O)c2ccc(O)cc2)cc1 | 7.44 µM | 5.69 µM | 6350 nM | 6.93 µM | 8970 nM | 3880 nM | 6.71 µM | 
2 | COc1ccc(-c2cc3ccccc3nc2/C=C/C(=O)c2c(OC)cccc2OC)cc1 | 7.41 µM | 4.47 µM | 5630 nM | 6.63 µM | 4710 nM | 3830 nM | 4.52 µM | 
3 | COc1ccc(-c2cc3ccccc3nc2/C=C/C(=O)c2ccccc2)cc1 | 7.41 µM | 8.56 µM | 860 nM | 6.67 µM | 1410 nM | 700 nM | 4.04 µM | 
4 | COc1ccc(-c2cc3ccccc3nc2/C=C/C(=O)c2ccc(Br)s2)cc1 | 6.25 µM | 9.38 µM | < 100 nM | 5.17 µM | 710 nM | 520 nM | 0.91 µM | Activity (H184B5F5/M10): inactive; Activity (MDA-MB-231 [5]): 8.1%; Activity (MDA-MB-231 [6]): Dose-dependent effect; Activity (MDA-MB-231 [7]): 23.5%; Activity (MDA-MB-231 [8]): 13.1%; Activity (MDA-MB-231 [9]): 33.4%; Activity (MDA-MB-231 [10]): Dose-dependent effect; Activity (MDA-MB-231 [11]): 54.3%; Activity (MDA-MB-231 [12]): 25.7%; Activity (MDA-MB-231 [13]): 30.1%; Activity (MDA-MB-231 [14]): Dose-dependent effect; Activity (MDA-MB-231 [15]): 7.2%; Activity (MDA-MB-231 [16]): 39.6%; Activity (MDA-MB-231 [17]): 28.3%; Activity (MDA-MB-231 [18]): 30.1%; Activity (MDA-MB-231 [19]): 10.1%; Activity (MDA-MB-231 [20]): Active; Activity (MDA-MB-231 [21]): tde
5 | COc1ccc(-c2cc3ccccc3nc2/C=C/C(=O)c2cc(OC)cc(OC)c2)cc1 | 9.52 µM | 6.66 µM | 920 nM | 7.52 µM | 930 nM | 470 nM | 3.23 µM | 
6 | COc1ccc(-c2cc3ccccc3nc2/C=C/C(=O)c2cccs2)cc1 | 0.92 µM | 7.03 µM | 410 nM | 5.44 µM | 720 nM | 800 nM | 1.03 µM | 
7 | COc1ccc(-c2cc3ccccc3nc2/C=C/C(=O)c2sccc2N)cc1 | > 10 µM | > 10 µM | > 10000 nM | > 10 µM | > 10000 nM | > 10000 nM | > 10 µM | 
8 | COc1ccc(-c2cc3ccccc3nc2/C=C/C(=O)c2ccccn2)cc1 | 6.14 µM | 4.14 µM | 740 nM | 6.26 µM | 660 nM | 370 nM | 0.81 µM | 
9 | COc1ccc(-c2cc3ccccc3nc2/C=C/C(=O)c2ccsc2)cc1 | 8.21 µM | 6.39 µM | 1060 nM | 7.08 µM | 1220 nM | 660 nM | 6.01 µM | 
10 | COc1ccc(-c2cc3ccccc3nc2/C=C/C(=O)c2ccc([N+](=O)[O-])cc2)cc1 | 6.31 µM | 6.1 µM | 840 nM | 6.47 µM | 770 nM | 590 nM | 4.11 µM | 
11 | COc1ccc(-c2cc3ccccc3nc2/C=C/C(=O)c2cnc(N)nc2C)cc1 | > 10 µM | > 10 µM | > 10000 nM | > 10 µM | > 10000 nM | > 10000 nM | > 10 µM | 
12 | COc1ccc(-c2cc3ccccc3nc2/C=C/C(=O)c2ccc(OC)c(OC)c2)cc1 | 8.86 µM | 7.24 µM | 4790 nM | 7.54 µM | 1050 nM | 3260 nM | 6.03 µM | 
13 | COc1ccc(-c2cc3ccccc3nc2/C=C/C(=O)c2ccc[nH]2)cc1 | > 10 µM | > 10 µM | > 10000 nM | > 10 µM | > 10000 nM | > 10000 nM | > 10 µM | 
14 | COc1ccc(C(=O)/C=C/c2nc3ccccc3cc2-c2ccc(OC)cc2)cc1 | 8.5 µM | > 10 µM | 7540 nM | > 10 µM | 6420 nM | 9280 nM | 7.38 µM | 
15 | Fc1ccc2nc(-c3ccc(OCCN4CCCCC4)cc3)c(-c3ccc(OCCN4CCCCC4)cc3)cc2c1 |  |  |  |  |  |  |  | GI50 [22]: 1460 nM; GI50 [23]: 710 nM; GI50 (MDA-MB-231 [24]): 720 nM
16 | COc1ccc(-c2cc3ccccc3nc2/C=C/C(=O)c2ccc(OC)cc2OC)cc1 | 7.99 µM | 6.11 µM | 3210 nM | 7.04 µM | 3770 nM | 2260 nM | 6.26 µM | 
17 | COc1ccc(-c2cc3ccccc3nc2/C=C/C(=O)c2ccco2)cc1 | 6.13 µM | 6.24 µM | 630 nM | 6.43 µM | 730 nM | 640 nM | 0.71 µM | 
18 | COc1ccc(-c2cc3ccccc3nc2/C=C/C(=O)c2ccc(N)cc2)cc1 | 7.53 µM | 9.29 µM | 7510 nM | 7.4 µM | 6510 nM | 8560 nM | 6.92 µM | 
19 | CC[C@@]1(O)C(=O)OCc2c1cc1n(c2=O)Cc2cc3c(CN(C)C)c(O)ccc3nc2-1 [TOPOTECAN] |  | > 10 µM | < 100 nM | 7.29 µM | 6020 nM | 8910 nM | 5.97 µM | 
20 | COc1ccc(-c2cc3ccccc3nc2/C=C/C(=O)c2ccc(F)cc2)cc1 | 8.32 µM | > 10 µM | 830 nM | 6.99 µM | 820 nM | 810 nM | 5.45 µM | 
21 | COc1ccc(-c2cc3ccccc3nc2/C=C/C(=O)c2c[nH]c3ccccc23)cc1 | > 10 µM | > 10 µM | > 10000 nM | 8.01 µM | > 10000 nM | 3450 nM | > 10 µM | 
22 | COc1ccc(-c2cc3ccccc3nc2C=O)cc1 | > 10 µM | > 10 µM | > 10000 nM | > 10 µM | > 10000 nM | > 10000 nM | > 10 µM | 
